From publication PMC3438169 (PLoS ONE, 2012)
*1 amine or outer side, *2 acyl side, *3 side chain or, on linkers, in order; H or OH if unused. Where a SMILES comes first, the peptide text is derived from it. [ ]: non-standard residue; d: D form. dAla(ψthiazole) = C[C@@H](N[*:1])c1nc(C(=O)[*:2])cs1; Trp(4-OMe) = COc1cccc2[nH]cc(C[C@H](N)C(=O)O)c12; dAbu = CC[C@@H](N)C(=O)O; Dha = C=C(N)C(=O)O; Sar = CNCC(=O)O

Experiments:
P. aeruginosa = assay: Broth microdilution susceptibility to argyrin B, P. aeruginosa strains; format: cell-based; details: for Susceptibility to argyrin B: broth microdilution
HCT116 = assay: Cell viability (CellTiter-Glo), HCT116 with siRNA or mEF-G1 variants; format: cell-based, human; details: 7 days
Experimental: HCT116 (ATCC, CCL-247) and RKO (ATCC, CRL-2577) cell lines were maintained in a humidified incubator at 37°C and 5% CO2 in RPMI1640 supplemented with 10% FBS. Cell viability was determined using the CellTiter-Glo luminescent cell viability assay (Promega). […] Subsequently, 40 µl of CellTiter-Glo reagent was added to each well and luminescence recorded on an Envision plate reader (Perkin Elmer). Each treatment condition was tested in triplicate and compared to an equivalent volume of DMSO as control.
Non-targeting (NT) or GFM1 siRNA pools were obtained from Dharmacon (ON-TARGETplus SMART pool D-001810 and L-013685). HCT116 and RKO cells were reverse transfected in 6-well plates using RNAiMax (Invitrogen) and 25 nM siRNA. After 2 days, cells were harvested by trypsinization and re-plated into 6-well plates for western blot analysis or into 384-well plates for compound treatments and cell viability determination using CellTiter-Glo as described above.
The human GFM1 cDNA (encoding mEF-G1, Table 2) was mutagenized in pENTR221 (Invitrogen) using QuikChangeII XL site-directed mutagenesis (Stratagene). The following point mutations were introduced: C1355T (encoding S452L), C1481T (encoding S494F) and T2078A (encoding L693Q). The GFM1 cDNAs were then subcloned into the mammalian expression vector pLenti4/TO/V5 using LR clonase II (Invitrogen) and sequence-verified. The pLenti4 constructs were then co-transfected with a lentiviral plasmid mix (encoding LP1, LP2 and VSV-G) into 293T cells, and viral particles were harvested after 72 h and used to infect HCT116 and RKO cells. Stable cell lines were generated by selection with 400 µg/ml Zeocin and plated into 6-well plates for western blot analysis or into 384-well plates for compound treatments and cell viability determination using CellTiter-Glo as described above.

[1] = test system: Cox4-GFP labeled mitochondria; assay: Microscopy of mitochondrial morphology (Cox4-GFP); format: cell-based, S. cerevisiae; details: 3× IC30 (10 µM on YPEG), 30 minutes, ethanol/glycerol
Experimental: BY4741 cells containing a genomic COX4-GFP fusion where grown to mid-log phase in glucose and ethanol/glycerol media and incubated with the corresponding concentrations of compound for 30 minutes. Aliquots where spotted on microscopy slides and directly imaged on a Zeiss Axiovert 200Mot microscope equipped with a AxioCam MRm digital camera using the Plan-Neofluar 100×, 1.3 oil PH3 objective (Carl Zeiss, Feldbach, Switzerland). A z-stack consisting of 3 images spaced by […] in the filterset 38 (eGFP) channel and a phase-contrast image where acquired. False colors where applied to the GFP images (green) and phase contrast (blue) and the images merged into one plane and scaled to 8-bit. Representative, individual cells where selected and assembled into a panel using Adobe Photoshop (Adobe Systems Inc.).

[2] = test system: recombinant human mEF-G1 WT; assay: Biacore binding, human mEF-G1 WT; details: 10, 20, 40 µM, HBS-P+ pH 7.4, 4% DMSO
Description: GFM1 encoding the active site of EF-G1 (residues 36–751) was PCR amplified from pDONR221 constructs using primers (GGGGACAAGTTTGTACAAAAAAGCAGGCTTAATGTCTTCATCAGGGGTGATT, GGGGACCACTTTGTACAAGAAAGCTGGGTATTAGTTCTTGGCTTTTCC). P. aeroginosa fusA1 encoding full-length EF-G was PCR amplified from pET28a-PaEFG-Nhis using primers (GGGGACCACTTTGTACAAGAAAGCTGGGTATTATCAACCTTGTTTTTT, GGGGACAAGTTTGTACAAAAAAGCAGGCTTAATGGCCCGTACTACACCC). Purified PCR products were cloned into the pDONR221 vector using Gateway cloning and BP Clonase II (Invitrogen), shuttled into an E.coli protein expression vector for N-terminal tagging (Avitag-His6 vector) using LR Clonase II (Invitrogen), and verified by sequencing. Avitag-His6-hEF-G1 and Avitag-His6-PaEF-G constructs were transformed into BL21-AI cells (Invitrogen) and isolated single colonies were used to inoculate 5 ml cultures which were grown overnight at 37°C with shaking. […]. Briefly, protein was captured on column using binding buffer (50 mM Tris; pH 7.5, 300 mM NaCl, 20 mM imidazole, 10% glycerol), washed extensively with washing buffer (50 mM Tris; pH 7.5, 500 mM NaCl, 30 mM imidazole, 10% glycerol), and then eluted with elution buffer (50 mM Tris; pH 7.5, 500 mM NaCl, 250 mM imidazole, 10% glycerol). […]

yeast (BY4741, BYΔ8) = assay: Yeast susceptibility determination, wild-type and BYΔ8; format: cell-based, S. cerevisiae; details: for Activity against yeast (in words): rich medium with glucose
Experimental: Yeast strains used in this study are BY4741 [32] and strain BYΔ8, derived from BY4741 but deleted for eight genes involved in drug resistance (efflux pumps: snq2, pdr5, yor1; transcription factors: pdr1, pdr2, pdr3, yap1, yrm1). […] Starting OD600 was 0.1, total volume per well 120 µl. Plates were incubated at 30°C with 770 RPM orbital shaking.

B. multivorans = assay: Broth microdilution susceptibility to argyrin B, B. multivorans strains; format: cell-based

C=C1NC(=O)CN(C)C(=O)CNC(=O)[C@H](Cc2c[nH]c3cccc(OC)c23)NC(=O)[C@H](Cc2c[nH]c3ccccc23)NC(=O)c2csc(n2)[C@@H](C)NC(=O)[C@@H](CC)NC1=O [argyrin B] (cyclo([dAbu][dAla(ψthiazole)]W[Trp(4-OMe)]G[Sar][Dha]))
Susceptibility to argyrin B (P. aeruginosa; P. aeruginosa ATCC 12055 (parent of ATCC 35151)): 8 µg/mL
Susceptibility to argyrin B (P. aeruginosa; P. aeruginosa ATCC 35151 (Z61), hypersensitive): 0.125 to 0.25 µg/mL
Susceptibility to argyrin B (P. aeruginosa; P. aeruginosa CDA0055 (Z61, FusA1 S417L)): 64 µg/mL
Susceptibility to argyrin B (P. aeruginosa; P. aeruginosa CDA0056 (Z61, FusA1 S459F)): 8 µg/mL
Susceptibility to argyrin B (P. aeruginosa; P. aeruginosa CDA0061 (Z61, FusA L663Q)): >128 µg/mL
Susceptibility to argyrin B (P. aeruginosa; P. aeruginosa CDR0052 (K767, FusA1 T671A)): >128 µg/mL
Susceptibility to argyrin B (P. aeruginosa; P. aeruginosa CDR0054 (K767, FusA1 S459F)): >128 µg/mL
Susceptibility to argyrin B (P. aeruginosa; P. aeruginosa CDR0055 (K767, FusA1 S417L)): >128 µg/mL
Susceptibility to argyrin B (P. aeruginosa; P. aeruginosa CDR0056 (K767, FusA1 Y683C)): >128 µg/mL
Susceptibility to argyrin B (P. aeruginosa; P. aeruginosa CDR0057 (K767, FusA1 P486S)): >128 µg/mL
Susceptibility to argyrin B (P. aeruginosa; P. aeruginosa CDR0058 (K767, FusA1 P414S)): >128 µg/mL
Susceptibility to argyrin B (P. aeruginosa; P. aeruginosa K767 (PAO1, prototroph)): 8 µg/mL
Sensitivity of mutants to argyrin B (in words) (P. aeruginosa; P. aeruginosa Z61 mutants with S417L and S459F substitutions): still partially sensitive
Lowering of IC50 by knock down of mEF-G1 (HCT116; HCT116, GFM1 siRNA, CellTiter Glo): circa 9.6 fold
Decrease of susceptibility on expression of mEF-G1 L693Q (HCT116; HCT116, mEF-G1 L693Q): 4.7 fold
Sensitivity change on expression of mEF-G1 S452L and S494F (in words) (HCT116; HCT116, mEF-G1 S452L and S494F): only marginal effects
Sensitivity change on overexpression of mEF-G1 WT (in words) (HCT116; HCT116, mEF-G1 WT stable overexpression): did not alter the argyrin B-sensitivity
Mitochondrial morphology (in words) [1]: mitochondrial morphology defects (fragmentation)
Binding to human mEF-G1 (in words) [2]: still bound
Activity against yeast (in words) (yeast (BY4741, BYΔ8); BYΔ8 (strain CMB970, eight genes involved in efflux deleted)): inactive
Inhibitory activity on glucose-grown yeast (in words) (yeast (BY4741, BYΔ8); glucose-grown yeast): lack of inhibitory activity
Activity against yeast (in words) (yeast (BY4741, BYΔ8); wild-type yeast (BY4741)): inactive
Susceptibility to argyrin B (B. multivorans; B. multivorans CDA0079 (FusA1 P484R)): >32 µg/mL
Susceptibility to argyrin B (B. multivorans; B. multivorans CDA0080 (FusA1 S415L)): >32 µg/mL
Susceptibility to argyrin B (B. multivorans; B. multivorans CDA0093 (FusA1 S415W)): >32 µg/mL
Susceptibility to argyrin B (B. multivorans; B. multivorans CDA0094 (FusA1 L656P)): >32 µg/mL
Susceptibility to argyrin B (B. multivorans; B. multivorans NB49004 (clinical isolate)): 1 µg/mL
